Test results as given in article PMC5865165, “Mechanism of action of the third generation benzopyrans and evaluation of their broad anti-cancer activity in vitro and in vivo” (Scientific Reports, 2018).

How the values were obtained:
Test in all cases: cells
Set-up in all cases: species or system melanoma cell lines (3D spheres); 3D melanoma tumour sphere viability, CellTiter-Glo 3D luminescence, 7-point dose response
A15 = settings: 3D tumour spheres, 72 h
Procedure: (§1) Dose responses to TRX-E-009-1 and TRX-E-002-1 were performed using 3D tumour sphere cultures of 21 melanoma cell lines. Cells were dissociated and seeded[17] at previously optimized densities into 384-well Ultra-Low Attachment plates (#3827, Corning). Cells were treated the following day with a 7 point 3-fold dilution series, 5.4 µM to 7.4 nM using a Sciclone ALH 3000 [compound left out] handling robot. Changes in cell viability were assayed at 72 hours using the Cell Titre Glo 3D assay (#G9683, Promega), luminescence reads were performed on a SynergyMx Plate Reader (BioTek Instruments). Luminescence values were normalized to the DMSO/vehicle control prior to comparisons. […] A second independent panel of melanoma cell lines grown as tumour spheres was assessed for sensitivity to both TRX-E-009-1 and TRX-E-002-1. […] As found with the Oncopanel melanoma cell lines, a subset (one third) of the cell lines were sensitive to killing by these BP compounds, with <20% viability at the highest concentration tested. These lines will be referred to as sensitive. The cell lines with >25% viability at the highest dose appear comparatively resistant to killing by the compounds and are referred to as resistant. Subsequent experiments utilized A2058, D04, SKMEL13, and A375 as representative of sensitive cell lines, while A15, SKMEL28, C013, and C002 were used to assess the effects of TRX-E-009-1 and TRX-E-002-1 on resistant lines.

A2058 = settings: Homo sapiens, A2058; 3D tumour spheres, 72 h
Procedure: as §1

A375 = settings: Homo sapiens, A-375; 3D tumour spheres, 72 h
Procedure: as §1

BL = settings: 3D tumour spheres, 72 h
Procedure: as §1

C002 = settings: 3D tumour spheres, 72 h
Procedure: as §1

C013 = settings: 3D tumour spheres, 72 h
Procedure: as §1

C045 = settings: 3D tumour spheres, 72 h
Procedure: as §1

C052 = settings: 3D tumour spheres, 72 h
Procedure: as §1

C054 = settings: 3D tumour spheres, 72 h
Procedure: as §1

D04 = settings: 3D tumour spheres, 72 h
Procedure: as §1

D20 = settings: 3D tumour spheres, 72 h
Procedure: as §1

D25 = settings: 3D tumour spheres, 72 h
Procedure: as §1

D28 = settings: 3D tumour spheres, 72 h
Procedure: as §1

HT144 = settings: Homo sapiens, HT-144; 3D tumour spheres, 72 h
Procedure: as §1

MM329 = settings: 3D tumour spheres, 72 h
Procedure: as §1

MM370 = settings: 3D tumour spheres, 72 h
Procedure: as §1

MM415 = settings: 3D tumour spheres, 72 h
Procedure: as §1

MM603 = settings: 3D tumour spheres, 72 h
Procedure: as §1

MM96L = settings: Homo sapiens, MM96L; 3D tumour spheres, 72 h
Procedure: as §1

SKMEL13 = settings: 3D tumour spheres, 72 h
Procedure: as §1

SKMEL28 = settings: Homo sapiens, SK-MEL-28; 3D tumour spheres, 72 h
Procedure: as §1

IC50 (A375): 321 nM
IC50 (HT144): 233 nM
IC50 (SKMEL13): 244 nM
IC50 (SKMEL28): 4580 nM
Structure (SMILES): COc1cc([C@@H]2COc3c(ccc(O)c3C)[C@@H]2c2ccc(O)c(F)c2)cc(OC)c1O (racemic) [TRX-E-009-1]
IC50 (A15): 489 nM
IC50 (A2058): 292 nM
IC50 (BL): 340 nM
IC50 (C002): 977 nM
IC50 (C013): 318 nM
IC50 (C045): 461 nM
IC50 (C052): 292 nM
IC50 (C054): 857 nM
IC50 (D04): 253 nM
IC50 (D20): 1110 nM
IC50 (D25): 5020 nM
IC50 (D28): 787 nM
IC50 (MM329): 178 nM
IC50 (MM370): 290 nM
IC50 (MM415): 323 nM
IC50 (MM603): 284 nM
IC50 (MM96L): 281 nM
